Assay results published in US9695155B2, “Herbicidal substituted pyrimidinyloxy benzene compounds” (E. I. DU PONT DE NEMOURS AND COMPANY, priority 2013, dated 2017).

What was measured:
Test in all cases: Test C preemergence
lambsquarters = type: in vivo, Chenopodium album; details: Chenopodium album, pre-emergence
In short: (§1)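 Visual injury score versus untreated controls, 0 = no effect, 100 = complete control, taken 13 to 15 days after treatment in the greenhouse. Pre-emergence pots held loam/sand; post-emergence plants grew in sphagnum peat/vermiculite mix and were sprayed at the 1- to 4-leaf stage.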

large (Lg) crabgrass = type: in vivo, Digitaria sanguinalis; details: Digitaria sanguinalis, pre-emergence
In short: as §1

yellow nutsedge = type: in vivo, Cyperus esculentus; details: Cyperus, pre-emergence
In short: as §1

pigweed = type: in vivo, Amaranthus retroflexus; details: Amaranthus retroflexus, pre-emergence
In short: as §1

Italian ryegrass = type: in vivo, Lolium multiflorum; details: Lolium multiflorum, pre-emergence
In short: as §1

velvetleaf = type: in vivo, Abutilon theophrasti; details: Abutilon theophrasti, pre-emergence
In short: as §1

soybean = type: in vivo, Glycine max; details: Glycine max, pre-emergence
In short: as §1

morningglory = type: in vivo, Ipomoea coccinea; details: Ipomoea, pre-emergence
In short: as §1

barnyardgrass = type: in vivo, Echinochloa crus-galli; details: Echinochloa crus-galli, pre-emergence
In short: as §1

waterhemp = type: in vivo, Amaranthus rudis; details: Amaranthus tuberculatus, pre-emergence
In short: as §1

oilseed rape = type: in vivo, Brassica napus; details: Brassica napus, pre-emergence
In short: as §1

blackgrass = type: in vivo, Alopecurus myosuroides; details: Alopecurus myosuroides, pre-emergence
In short: as §1

johnsongrass = type: in vivo, Sorghum halepense; details: Sorghum halepense, pre-emergence
In short: as §1

giant foxtail = type: in vivo, Setaria faberii; details: Setaria faberi, pre-emergence
In short: as §1

N#Cc1cccc(Oc2ncc(F)cn2)c1-n1cc(C(F)(F)F)cn1 [Compound 79, 3-[(5-fluoro-2-pyrimidinyl)oxy]-2-[4-(trifluoromethyl)-1H-pyrazol-1-yl]benzonitrile]
75%: pest or weed control at 250 g/ha (yellow nutsedge; 250 g ai/ha, preemergence, scale 0 (no effect) to 100 (complete control), read-out: Nutsedge, Yellow plant response rating) | plant injury at 62 g/ha (soybean; 62 g ai/ha, preemergence, scale 0 (no effect) to 100 (complete control), read-out: Soybean plant response rating) | plant injury at 31 g/ha (soybean; Preemergence, 31 g ai/ha, scale 0 to 100, 0 no effect, 100 complete control, read-out: Plant response rating, Soybean) | pest or weed control at 31 g/ha (johnsongrass; Preemergence, 31 g ai/ha, scale 0 to 100, 0 no effect, 100 complete control, read-out: Plant response rating, Johnsongrass)
65%: pest or weed control at 125 g/ha (yellow nutsedge; 125 g ai/ha, preemergence, scale 0 (no effect) to 100 (complete control), read-out: Nutsedge, Yellow plant response rating)
40%: pest or weed control at 31 g/ha (Italian ryegrass; Preemergence, 31 g ai/ha, scale 0 to 100, 0 no effect, 100 complete control, read-out: Plant response rating, Ryegrass, Italian)
95%: plant injury at 250 g/ha (soybean; 250 g ai/ha, preemergence, scale 0 (no effect) to 100 (complete control), read-out: Soybean plant response rating) | pest or weed control at 31 g/ha (morningglory; Preemergence, 31 g ai/ha, scale 0 to 100, 0 no effect, 100 complete control, read-out: Plant response rating, Morningglory) | plant injury at 62 g/ha (oilseed rape; 62 g ai/ha, preemergence, scale 0 (no effect) to 100 (complete control), read-out: Oilseed Rape plant response rating) | plant injury at 125 g/ha (oilseed rape; 125 g ai/ha, preemergence, scale 0 (no effect) to 100 (complete control), read-out: Oilseed Rape plant response rating) | plant injury at 250 g/ha (oilseed rape; 250 g ai/ha, preemergence, scale 0 (no effect) to 100 (complete control), read-out: Oilseed Rape plant response rating)
100%: pest or weed control at 62 g/ha (lambsquarters; 62 g ai/ha, preemergence, scale 0 (no effect) to 100 (complete control), read-out: Lambsquarters plant response rating) | pest or weed control at 125 g/ha (lambsquarters; 125 g ai/ha, preemergence, scale 0 (no effect) to 100 (complete control), read-out: Lambsquarters plant response rating) | pest or weed control at 250 g/ha (lambsquarters; 250 g ai/ha, preemergence, scale 0 (no effect) to 100 (complete control), read-out: Lambsquarters plant response rating) | pest or weed control at 31 g/ha (lambsquarters; Preemergence, 31 g ai/ha, scale 0 to 100, 0 no effect, 100 complete control, read-out: Plant response rating, Lambsquarters) | pest or weed control at 62 g/ha (large (Lg) crabgrass; 62 g ai/ha, preemergence, scale 0 (no effect) to 100 (complete control), read-out: Crabgrass, Large plant response rating) | pest or weed control at 125 g/ha (large (Lg) crabgrass; 125 g ai/ha, preemergence, scale 0 (no effect) to 100 (complete control), read-out: Crabgrass, Large plant response rating) | pest or weed control at 250 g/ha (large (Lg) crabgrass; 250 g ai/ha, preemergence, scale 0 (no effect) to 100 (complete control), read-out: Crabgrass, Large plant response rating) | pest or weed control at 31 g/ha (large (Lg) crabgrass; Preemergence, 31 g ai/ha, scale 0 to 100, 0 no effect, 100 complete control, read-out: Plant response rating, Crabgrass, Large) | pest or weed control at 62 g/ha (pigweed; 62 g ai/ha, preemergence, scale 0 (no effect) to 100 (complete control), read-out: Pigweed plant response rating) | pest or weed control at 125 g/ha (pigweed; 125 g ai/ha, preemergence, scale 0 (no effect) to 100 (complete control), read-out: Pigweed plant response rating) | pest or weed control at 250 g/ha (pigweed; 250 g ai/ha, preemergence, scale 0 (no effect) to 100 (complete control), read-out: Pigweed plant response rating) | pest or weed control at 31 g/ha (pigweed; Preemergence, 31 g ai/ha, scale 0 to 100, 0 no effect, 100 complete control, read-out: Plant response rating, Pigweed) | pest or weed control at 62 g/ha (velvetleaf; 62 g ai/ha, preemergence, scale 0 (no effect) to 100 (complete control), read-out: Velvetleaf plant response rating) | pest or weed control at 125 g/ha (velvetleaf; 125 g ai/ha, preemergence, scale 0 (no effect) to 100 (complete control), read-out: Velvetleaf plant response rating) | pest or weed control at 250 g/ha (velvetleaf; 250 g ai/ha, preemergence, scale 0 (no effect) to 100 (complete control), read-out: Velvetleaf plant response rating) | pest or weed control at 62 g/ha (morningglory; 62 g ai/ha, preemergence, scale 0 (no effect) to 100 (complete control), read-out: Morningglory plant response rating) | pest or weed control at 125 g/ha (morningglory; 125 g ai/ha, preemergence, scale 0 (no effect) to 100 (complete control), read-out: Morningglory plant response rating) | pest or weed control at 250 g/ha (morningglory; 250 g ai/ha, preemergence, scale 0 (no effect) to 100 (complete control), read-out: Morningglory plant response rating) | pest or weed control at 62 g/ha (barnyardgrass; 62 g ai/ha, preemergence, scale 0 (no effect) to 100 (complete control), read-out: Barnyardgrass plant response rating) | pest or weed control at 125 g/ha (barnyardgrass; 125 g ai/ha, preemergence, scale 0 (no effect) to 100 (complete control), read-out: Barnyardgrass plant response rating) | pest or weed control at 250 g/ha (barnyardgrass; 250 g ai/ha, preemergence, scale 0 (no effect) to 100 (complete control), read-out: Barnyardgrass plant response rating) | pest or weed control at 31 g/ha (barnyardgrass; Preemergence, 31 g ai/ha, scale 0 to 100, 0 no effect, 100 complete control, read-out: Plant response rating, Barnyardgrass) | pest or weed control at 62 g/ha (waterhemp; 62 g ai/ha, preemergence, scale 0 (no effect) to 100 (complete control), read-out: Waterhemp plant response rating) | pest or weed control at 125 g/ha (waterhemp; 125 g ai/ha, preemergence, scale 0 (no effect) to 100 (complete control), read-out: Waterhemp plant response rating) | pest or weed control at 250 g/ha (waterhemp; 250 g ai/ha, preemergence, scale 0 (no effect) to 100 (complete control), read-out: Waterhemp plant response rating) | pest or weed control at 31 g/ha (waterhemp; Preemergence, 31 g ai/ha, scale 0 to 100, 0 no effect, 100 complete control, read-out: Plant response rating, Waterhemp) | pest or weed control at 125 g/ha (johnsongrass; 125 g ai/ha, preemergence, scale 0 (no effect) to 100 (complete control), read-out: Johnsongrass plant response rating) | pest or weed control at 250 g/ha (johnsongrass; 250 g ai/ha, preemergence, scale 0 (no effect) to 100 (complete control), read-out: Johnsongrass plant response rating) | pest or weed control at 62 g/ha (giant foxtail; 62 g ai/ha, preemergence, scale 0 (no effect) to 100 (complete control), read-out: Foxtail, Giant plant response rating) | pest or weed control at 125 g/ha (giant foxtail; 125 g ai/ha, preemergence, scale 0 (no effect) to 100 (complete control), read-out: Foxtail, Giant plant response rating) | pest or weed control at 250 g/ha (giant foxtail; 250 g ai/ha, preemergence, scale 0 (no effect) to 100 (complete control), read-out: Foxtail, Giant plant response rating)
10%: pest or weed control at 31 g/ha (yellow nutsedge; Preemergence, 31 g ai/ha, scale 0 to 100, 0 no effect, 100 complete control, read-out: Plant response rating, Nutsedge, Yellow)
15%: pest or weed control at 62 g/ha (yellow nutsedge; 62 g ai/ha, preemergence, scale 0 (no effect) to 100 (complete control), read-out: Nutsedge, Yellow plant response rating)
90%: pest or weed control at 62 g/ha (Italian ryegrass; 62 g ai/ha, preemergence, scale 0 (no effect) to 100 (complete control), read-out: Ryegrass, Italian plant response rating) | pest or weed control at 125 g/ha (Italian ryegrass; 125 g ai/ha, preemergence, scale 0 (no effect) to 100 (complete control), read-out: Ryegrass, Italian plant response rating) | pest or weed control at 250 g/ha (Italian ryegrass; 250 g ai/ha, preemergence, scale 0 (no effect) to 100 (complete control), read-out: Ryegrass, Italian plant response rating) | pest or weed control at 31 g/ha (velvetleaf; Preemergence, 31 g ai/ha, scale 0 to 100, 0 no effect, 100 complete control, read-out: Plant response rating, Velvetleaf) | plant injury at 125 g/ha (soybean; 125 g ai/ha, preemergence, scale 0 (no effect) to 100 (complete control), read-out: Soybean plant response rating) | plant injury at 31 g/ha (oilseed rape; Preemergence, 31 g ai/ha, scale 0 to 100, 0 no effect, 100 complete control, read-out: Plant response rating, Oilseed Rape) | pest or weed control at 62 g/ha (blackgrass; 62 g ai/ha, preemergence, scale 0 (no effect) to 100 (complete control), read-out: Blackgrass plant response rating) | pest or weed control at 125 g/ha (blackgrass; 125 g ai/ha, preemergence, scale 0 (no effect) to 100 (complete control), read-out: Blackgrass plant response rating) | pest or weed control at 250 g/ha (blackgrass; 250 g ai/ha, preemergence, scale 0 (no effect) to 100 (complete control), read-out: Blackgrass plant response rating) | pest or weed control at 31 g/ha (blackgrass; Preemergence, 31 g ai/ha, scale 0 to 100, 0 no effect, 100 complete control, read-out: Plant response rating, Blackgrass) | pest or weed control at 62 g/ha (johnsongrass; 62 g ai/ha, preemergence, scale 0 (no effect) to 100 (complete control), read-out: Johnsongrass plant response rating)
98%: pest or weed control at 31 g/ha (giant foxtail; Preemergence, 31 g ai/ha, scale 0 to 100, 0 no effect, 100 complete control, read-out: Plant response rating, Foxtail, Giant)
